How the values were obtained:
[1] = tested on: IL-12; details: human monocytes, LPS 100 ng/ml for 4 hours, bindarit 300 μM tested as sodium salt
Procedure: The capacity of bindarit to inhibit the expression of IL-12 by human monocytes stimulated with lipopolysaccharide (LPS) was evaluated.
Human monocytes were used, which were isolated from healthy donors by centrifugation on a Ficoll gradient and purified by two successive centrifugation steps, followed by a step of isolation by means of an immunomagnetic system of negative cell separation (MACS, Miltenyi Biotech), using specific antibodies.
The cells were stimulated with LPS (100 ng/ml) for 4 hours in the presence or absence of bindarit (300 μM). The product was tested in the form of the sodium salt obtained by salification with equimolar sodium hydroxide and subsequent dilution in the medium used. The total RNA was extracted from cells using TRizol (Invitrogen Life Technologies) according to manufacturer's instructions, reverse-transcribed and prepared by GeneChip hybridization.

[2] = tested on: obese Zucker rats (fa/fa); details: standard rodent diet supplemented with 0.5% bindarit, blood at 6, 16, 28 and 40 weeks old
Procedure: The activity of bindarit was tested in an experimental model in rats.
The study was performed on rats 5 weeks old on arrival, of the Zucker strain homozygous for the “fa” allele (fa/fa), insulin-resistant, hyperinsulinaemic and obese, and on rats of the same age of the heterozygous Zucker control strain (fa/+), phenotypically normal, insulin-sensitive and slim.
At six weeks old, the obese Zucker rats were divided into two groups, one of which was fed with a standard rodent diet, and the other with a standard rodent diet supplemented with 0.5% bindarit.
The slim Zucker rats of the same age were used as controls and fed with a standard rodent diet.
Blood samples were taken from the animals periodically (at 6, 16, 28 and 40 weeks old) for enzymatic measurement of the circulating levels of triglycerides, cholesterol and glucose.

CC(C)(OCc1nn(Cc2ccccc2)c2ccccc12)C(=O)O [bindarit]
reduction of the levels of LPS-induced IL-12 specific mRNA [1]: about 100 fold | circulating levels of cholesterol [2]: significant reduction | circulating levels of triglycerides [2]: significant reduction | glycaemia (circulating glucose) [2]: significant reduction

— patent US8846745B2, “Use of an indazolemethoxyalkanoic acid for reducing triglyceride, cholesterol and glucose levels” (Aziende Chimiche Riunite Angelini Francesco A.C.R.A.F. …, priority 2006, dated 2014)
